Results on four compounds are retold here after patent US9248109B2, “High penetration prodrug compositions of peptides and peptide-related compounds” (priority 2009, dated 2016).

In this test the test system is Sprague Dawley rats. The test can be described thus: Anti-obese activity, transdermal, female Sprague Dawley rats 15 weeks old (first experiment). The test is classed as in vivo, rat. The settings on record: for Weight (g) (Day 1): baseline; for effect on body weights of rats (in words): 10, 1 or 0.3 mg/kg transdermal twice per day for 30 days; for effect on food intakes and body weights (in words): administrated transdermally, as low as 0.3 mg/kg in rat, SD rats and DB/DB mice. As for the experimental part:
In a first experiment, 40 female Sprague Dawley rats (15 weeks old, 318-346 g) were divided into 4 groups. In group A, 0.2 ml of water was administered to the back of rat (n=10) twice per day for 30 days. In Groups B, C, and D, 10 mg/kg, 1 mg/kg, or 0.3 mg/kg of H-Val-Pro-Gly-Pro-Arg(NO2)—OCH(CH3)2.HCl(SEQ ID NO: 197) in 0.2 ml of water was administered transdermally to the back of rat (n=10) twice per day for 30 days respectively.
In a first experiment, 40 female Sprague Dawley (SD) rats (15 weeks old, 315-340 g) were divided into 4 groups. In group A, 0.2 ml of water was administered to the back of rat (n=10) twice per day for 30 days. In Groups B, C, and D, 10 mg/kg, 1 mg/kg, or 0.3 mg/kg of H-Val-Pro-Gly-Pro-Arg(diAc)-OCH2CH2CH2CH3.HCl(SEQ ID NO: 198) in 0.2 ml of water was administered transdermally to the back of rat (n=10) twice per day for 30 days respectively.
In a first experiment, 40 female Sprague Dawley (SD) rats (15 weeks old, 320-345 g) were divided into 4 groups. In group A, 0.2 ml of water was administered to the back of rat (n=10) twice per day for 30 days. In Groups B, C, and D, 10 mg/kg, 1 mg/kg, or 0.3 mg/kg of H-Ala-Pro-Gly-Pro-Arg(NO2)—OCH2CH2CH2CH3.HCl(SEQ ID NO: 199) in 0.2 ml of water was administered transdermally to the back of rat (n=10) twice per day for 30 days respectively.
In a first experiment, 40 female Sprague Dawley (SD) rats (15 weeks old, 320-350 g) were divided into 4 groups. In group A, 0.2 ml of water was administered to the back of rat (n=10) twice per day for 30 days. In Groups B, C, and D, 10 mg/kg, 1 mg/kg, or 0.3 mg/kg of H-Val-Pro-Asp(OEt)-Pro-Arg(NO2)—OCH2CH2CH2CH3.HCl(SEQ ID NO: 200) in 0.2 ml of water was administered transdermally to the back of rat (n=10) twice per day for 30 days respectively.

[1] abbreviates: 0.3 mg/kg transdermal twice per day for 30 days.
Setting [2] is: 0.3 mg/kg transdermal twice per day.
The mark [3] stands for this setting: 1 mg/kg transdermal twice per day for 30 days.
[4] abbreviates: 1 mg/kg transdermal twice per day.
[5] abbreviates: 10 mg/kg transdermal twice per day for 30 days.
Where [6] appears, read: 10 mg/kg transdermal twice per day.

Counter-ions that a name gives are not always drawn. Non-standard residues stand in square brackets, D forms with d. Residues, ends and D or L forms follow the SMILES beside them. *: point of attachment. Arg(NO2) = N=C(NCCC[C@H](N)C(=O)O)N[N+](=O)[O-]; X1 = CCCCO*

For `CCCCOC(=O)[C@H](CCCNC(=N)N[N+](=O)[O-])NC(=O)[C@@H]1CCCN1C(=O)CNC(=O)[C@@H]1CCCN1C(=O)[C@H](C)N` [H-Ala-Pro-Gly-Pro-Arg(NO2)—OCH2CH2CH2CH3.HCl] (HELM PEPTIDE1{A.P.G.P.[N=C(NCCC[C@H](N[*:1])C(=O)[*:2])N[N+](=O)[O-]].[CCCCO[*:1]]}$$$$V2.0), the “effect on body weights of rats (in words)” value (“effect on body weights” below) is “reduced body weights of rats effectively”; the “effect on food intakes and body weights (in words)” value was “reduced food intakes and body weights”. In addition, under setting [1], the “Food intake (per day & per rat)” value turned out to be 22.7 ± 1.8 and the “Weight (g) (Day 30)” value worked out at 335.1 ± 4.8 g. Moreover, the “Weight (g) (Day 1)” value under setting [2] turned out to be 335.1 ± 6.2 g. Besides, under setting [3], the “Food intake (per day & per rat)” value was 21.8 ± 2.3 and the “Weight (g) (Day 30)” value came to 323.7 ± 4.4 g. Also, under setting [4], the “Weight (g) (Day 1)” value is listed as 333.6 ± 7.8 g. Further, under setting [5], the “Food intake (per day & per rat)” value turned out to be 20.8 ± 2.4 and the “Weight (g) (Day 30)” value amounted to 315.4 ± 3.8 g. Further, the “Weight (g) (Day 1)” value under setting [6] is given as 332.2 ± 7.4 g.
As to `CCCCOC(=O)[C@H](CCCNC(=N)N[N+](=O)[O-])NC(=O)[C@@H]1CCCN1C(=O)[C@H](CC(=O)OCC)NC(=O)[C@@H]1CCCN1C(=O)[C@@H](N)C(C)C` [H-Val-Pro-Asp(OEt)-Pro-Arg(NO2)—OCH2CH2CH2CH3.HCl] (H-VPD(OEt)P[Arg(NO2)]-X1), the “effect on body weights” value is recorded as “reduced body weights of rats effectively”; the “effect on food intakes and body weights (in words)” value was “reduced food intake and body weights”. Under setting [1], the “Food intake (per day & per rat)” value was 22.7 ± 2.5 and the “Weight (g) (Day 30)” value turned out to be 333.1 ± 3.9 g. Under setting [2], the “Weight (g) (Day 1)” value is 333.5 ± 7.1 g. Under setting [3], the “Food intake (per day & per rat)” value is recorded as 21.9 ± 2.7 and the “Weight (g) (Day 30)” value was determined as 326.8 ± 2.8 g. Further, under setting [4], the “Weight (g) (Day 1)” value is 329.8 ± 7.8 g. Under setting [5], the “Food intake (per day & per rat)” value worked out at 20.1 ± 3.2 and the “Weight (g) (Day 30)” value worked out at 318.1 ± 3.9 g. Besides, the “Weight (g) (Day 1)” value under setting [6] came out at 330.5 ± 8.2 g.
As to `CC(C)OC(=O)[C@H](CCCNC(=N)N[N+](=O)[O-])NC(=O)[C@@H]1CCCN1C(=O)CNC(=O)[C@@H]1CCCN1C(=O)[C@@H](N)C(C)C` [H-Val-Pro-Gly-Pro-Arg(NO2)-OCH(CH3)2•HCl, H-Val-Pro-Gly-Pro-Arg(NO2)—OCH(CH3)2.HCl] (HELM PEPTIDE1{V.P.G.P.[N=C(NCCC[C@H](N[*:1])C(=O)[*:2])N[N+](=O)[O-]].[CC(C)O[*:1]]}$$$$V2.0), the “effect on body weights” value is on record as “reduced body weights of rats effectively”; the “effect on food intakes and body weights (in words)” value is “reduced food intakes and body weights”. In addition, under setting [1], the “Food intake (per day & per rat)” value amounted to 22.1 ± 2.5 and the “Weight (g) (Day 30)” value amounted to 322.1 ± 4.3 g. Further, the “Weight (g) (Day 1)” value under setting [2] worked out at 335.4 ± 5.2 g. Under setting [3], the “Food intake (per day & per rat)” value turned out to be 21.1 ± 2.7 and the “Weight (g) (Day 30)” value is 313.7 ± 5.1 g. Also, the “Weight (g) (Day 1)” value under setting [4] turned out to be 333.1 ± 5.1 g. Moreover, under setting [5], the “Food intake (per day & per rat)” value is given as 19.9 ± 2.9 and the “Weight (g) (Day 30)” value was determined as 308.4 ± 4.5 g. For the same compound, the “Weight (g) (Day 1)” value under setting [6] turned out to be 331.7 ± 6.2 g.
For the compound “H-Val-Pro-Gly-Pro-Arg(diAc)-OCH2CH2CH2CH3.HCl”, the “effect on body weights” value is recorded as “reduced body weights of rats effectively”; the “effect on food intakes and body weights (in words)” value is “reduced food intakes and body weights”. Moreover, under setting [1], the “Food intake (per day & per rat)” value amounted to 23.0 ± 1.7 and the “Weight (g) (Day 30)” value turned out to be 347.1 ± 5.7 g. Besides, the “Weight (g) (Day 1)” value under setting [2] worked out at 333.1 ± 6.1 g. Moreover, under setting [3], the “Food intake (per day & per rat)” value is 21.9 ± 1.9 and the “Weight (g) (Day 30)” value is listed as 336.7 ± 5.6 g. Further, the “Weight (g) (Day 1)” value under setting [4] came out at 331.6 ± 6.6 g. Moreover, under setting [5], the “Food intake (per day & per rat)” value was 20.9 ± 2.2 and the “Weight (g) (Day 30)” value amounted to 329.2 ± 4.8 g. Further, the “Weight (g) (Day 1)” value under setting [6] was determined as 334.1 ± 7.5 g.
